Values of other authors, collected in patent US20100121052A1, “Novel compounds for treating proliferative diseases” (priority 2008, published 2010).

System: prostate cancer cell lines
Conditions: background statement

With `CC(=O)O[C@@H]1[C@@H](OC(C)=O)[C@@H](O)[C@H](Oc2c(-c3ccc(O)cc3)oc3cc(O)cc(O)c3c2=O)O[C@H]1C` [SL0101] as the compound, how does the “inhibition of proliferation of multiple prostate cancer cell lines” value read?
The value was “inhibit the proliferation”.
